Experimental data from ChEMBL document CHEMBL3045255, “Novel quinolyl-thienyl chalcones and their 2-pyrazoline derivatives with diverse substitution pattern as antileishmanial agents against Leishmania major” (Med Chem Res, 2012).
In brackets after ≈: the same amount, converted by molar mass.

What follows are molecules tested on Leishmania major (assay: Antileishmanial activity against promastigotes form of Leishmania major after 72 hr by cell counting using neubaur chamber).
Format: functional, organism-based

SMILES | IC50
Cc1ccc2cc(/C=C/C(=O)c3ccsc3)c(Cl)nc2c1 | 0.88 µg/mL (≈ 2.8 µM)
Cc1ccc2cc(/C=C/C(=O)c3sccc3C)c(Cl)nc2c1 | 0.92 µg/mL (≈ 2.81 µM)
Cc1csc(C(=O)/C=C/c2cc3ccc(C)cc3nc2Cl)c1 | 0.83 µg/mL (≈ 2.53 µM)
Cc1ccc2cc(/C=C/C(=O)c3ccc(C)s3)c(Cl)nc2c1 | 0.74 µg/mL (≈ 2.26 µM)
Cc1ccc2cc(/C=C/C(=O)c3cc(C)sc3C)c(Cl)nc2c1 | 0.62 µg/mL (≈ 1.81 µM)
Cc1ccc2cc(/C=C/C(=O)c3sccc3Cl)c(Cl)nc2c1 | 0.59 µg/mL (≈ 1.69 µM)
Cc1ccc2cc(/C=C/C(=O)c3ccc(Cl)s3)c(Cl)nc2c1 | 0.81 µg/mL (≈ 2.33 µM)
Cc1ccc2cc(/C=C/C(=O)c3cc(Cl)sc3Cl)c(Cl)nc2c1 | 0.78 µg/mL (≈ 2.04 µM)
Cc1ccc2cc(/C=C/C(=O)c3sccc3Br)c(Cl)nc2c1 | 0.71 µg/mL (≈ 1.81 µM)
Cc1ccc2cc(/C=C/C(=O)c3ccc(Br)s3)c(Cl)nc2c1 | 0.91 µg/mL (≈ 2.32 µM)
Cc1ccc2cc(/C=C/C(=O)c3ccc(I)s3)c(Cl)nc2c1 | 0.84 µg/mL (≈ 1.91 µM)
Cc1cccc2cc(/C=C/C(=O)c3ccsc3)c(Cl)nc12 | 0.61 µg/mL (≈ 1.94 µM)
Cc1ccsc1C(=O)/C=C/c1cc2cccc(C)c2nc1Cl | 0.94 µg/mL (≈ 2.87 µM)
Cc1csc(C(=O)/C=C/c2cc3cccc(C)c3nc2Cl)c1 | 0.59 µg/mL (≈ 1.8 µM)
Cc1ccc(C(=O)/C=C/c2cc3cccc(C)c3nc2Cl)s1 | 0.61 µg/mL (≈ 1.86 µM)
Cc1cc(C(=O)/C=C/c2cc3cccc(C)c3nc2Cl)c(C)s1 | 0.73 µg/mL (≈ 2.14 µM)
Cc1cccc2cc(/C=C/C(=O)c3sccc3Cl)c(Cl)nc12 | 0.78 µg/mL (≈ 2.24 µM)
Cc1cccc2cc(/C=C/C(=O)c3ccc(Cl)s3)c(Cl)nc12 | 0.65 µg/mL (≈ 1.87 µM)
Cc1cccc2cc(/C=C/C(=O)c3cc(Cl)sc3Cl)c(Cl)nc12 | 0.85 µg/mL (≈ 2.22 µM)
Cc1cccc2cc(/C=C/C(=O)c3sccc3Br)c(Cl)nc12 | 0.93 µg/mL (≈ 2.37 µM)
Cc1cccc2cc(/C=C/C(=O)c3ccc(Br)s3)c(Cl)nc12 | 0.78 µg/mL (≈ 1.99 µM)
Cc1cccc2cc(/C=C/C(=O)c3ccc(I)s3)c(Cl)nc12 | 0.67 µg/mL (≈ 1.52 µM)

SMILES | IC50
Cc1ccc2cc(C3CC(c4ccc(Br)s4)=NN3)c(Cl)nc2c1 (centres undefined) | 0.93 µg/mL (≈ 2.29 µM)
Cc1ccc2cc(C3CC(c4ccc(I)s4)=NN3)c(Cl)nc2c1 (centres undefined) | 0.88 µg/mL (≈ 1.94 µM)
Cc1cccc2cc(C3CC(c4ccsc4)=NN3)c(Cl)nc12 (centres undefined) | 0.67 µg/mL (≈ 2.04 µM)
Cc1ccsc1C1=NNC(c2cc3cccc(C)c3nc2Cl)C1 (centres undefined) | 0.78 µg/mL (≈ 2.28 µM)
Cc1csc(C2=NNC(c3cc4cccc(C)c4nc3Cl)C2)c1 (centres undefined) | 0.74 µg/mL (≈ 2.16 µM)
Cc1ccc(C2=NNC(c3cc4cccc(C)c4nc3Cl)C2)s1 (centres undefined) | 0.89 µg/mL (≈ 2.6 µM)
Cc1cc(C2=NNC(c3cc4cccc(C)c4nc3Cl)C2)c(C)s1 (centres undefined) | 0.93 µg/mL (≈ 2.61 µM)
Cc1cccc2cc(C3CC(c4sccc4Cl)=NN3)c(Cl)nc12 (centres undefined) | 0.84 µg/mL (≈ 2.32 µM)
Cc1cccc2cc(C3CC(c4ccc(Cl)s4)=NN3)c(Cl)nc12 (centres undefined) | 0.75 µg/mL (≈ 2.07 µM)
Cc1cccc2cc(C3CC(c4cc(Cl)sc4Cl)=NN3)c(Cl)nc12 (centres undefined) | 0.79 µg/mL (≈ 1.99 µM)
Cc1cccc2cc(C3CC(c4sccc4Br)=NN3)c(Cl)nc12 (centres undefined) | 0.94 µg/mL (≈ 2.31 µM)
Cc1cccc2cc(C3CC(c4ccc(Br)s4)=NN3)c(Cl)nc12 (centres undefined) | 0.93 µg/mL (≈ 2.29 µM)
Cc1cccc2cc(C3CC(c4ccc(I)s4)=NN3)c(Cl)nc12 (centres undefined) | 0.77 µg/mL (≈ 1.7 µM)
Cc1ccc2cc(C3CC(c4ccsc4)=NN3)c(Cl)nc2c1 (centres undefined) | 0.94 µg/mL (≈ 2.87 µM)
Cc1ccc2cc(C3CC(c4sccc4C)=NN3)c(Cl)nc2c1 (centres undefined) | 0.76 µg/mL (≈ 2.22 µM)
Cc1csc(C2=NNC(c3cc4ccc(C)cc4nc3Cl)C2)c1 (centres undefined) | 0.87 µg/mL (≈ 2.54 µM)
Cc1ccc2cc(C3CC(c4ccc(C)s4)=NN3)c(Cl)nc2c1 (centres undefined) | 0.89 µg/mL (≈ 2.6 µM)
Cc1ccc2cc(C3CC(c4cc(C)sc4C)=NN3)c(Cl)nc2c1 (centres undefined) | 0.76 µg/mL (≈ 2.14 µM)
Cc1ccc2cc(C3CC(c4sccc4Cl)=NN3)c(Cl)nc2c1 (centres undefined) | 0.78 µg/mL (≈ 2.15 µM)
Cc1ccc2cc(C3CC(c4ccc(Cl)s4)=NN3)c(Cl)nc2c1 (centres undefined) | 0.83 µg/mL (≈ 2.29 µM)
Cc1ccc2cc(C3CC(c4cc(Cl)sc4Cl)=NN3)c(Cl)nc2c1 (centres undefined) | 0.71 µg/mL (≈ 1.79 µM)
Cc1ccc2cc(C3CC(c4sccc4Br)=NN3)c(Cl)nc2c1 (centres undefined) | 0.85 µg/mL (≈ 2.09 µM)
